According to ChEMBL document CHEMBL1201862, “PubChem BioAssay data set” (2004):
Active and inactive are the calls of the source.

Columns and labels:
[1] = tested on: INS1; assay: INS-1E mitochondrial potential rescue under cytokines – cell-based, JC-1 fluorescence ratio, dry powder, dose response (AID 488931); format: functional; conditions: Rattus norvegicus
[2] = suppression of NO production in INS-1E cells – cell-based, Griess absorbance, dry powder, set 3, dose response (AID 488870); format: functional; conditions: Rattus norvegicus
[3] = tested on: INS1; assay: beta-cell survival under cytokine stress – INS-1E, ATP luminescence, dry powder, dose response (AID 488844); format: functional, cell-based; conditions: Rattus norvegicus
[4] = tested on: INS1; assay: suppression of NO production in INS-1E cells – cell-based, Griess absorbance, dry powder, set 2, dose response (AID 488868); format: functional; conditions: Rattus norvegicus
[5] = biological target: Apoptotic protease-activating factor 1 (Homo sapiens, UniProt O14727); assay: SAR analysis of small molecule inhibitors of Apaf-1 in a Fluorescent assay.; format: functional; conditions: read-out: IC50_Mean
Apoptotic protease-activating factor 1, sequence (O14727 whole entry): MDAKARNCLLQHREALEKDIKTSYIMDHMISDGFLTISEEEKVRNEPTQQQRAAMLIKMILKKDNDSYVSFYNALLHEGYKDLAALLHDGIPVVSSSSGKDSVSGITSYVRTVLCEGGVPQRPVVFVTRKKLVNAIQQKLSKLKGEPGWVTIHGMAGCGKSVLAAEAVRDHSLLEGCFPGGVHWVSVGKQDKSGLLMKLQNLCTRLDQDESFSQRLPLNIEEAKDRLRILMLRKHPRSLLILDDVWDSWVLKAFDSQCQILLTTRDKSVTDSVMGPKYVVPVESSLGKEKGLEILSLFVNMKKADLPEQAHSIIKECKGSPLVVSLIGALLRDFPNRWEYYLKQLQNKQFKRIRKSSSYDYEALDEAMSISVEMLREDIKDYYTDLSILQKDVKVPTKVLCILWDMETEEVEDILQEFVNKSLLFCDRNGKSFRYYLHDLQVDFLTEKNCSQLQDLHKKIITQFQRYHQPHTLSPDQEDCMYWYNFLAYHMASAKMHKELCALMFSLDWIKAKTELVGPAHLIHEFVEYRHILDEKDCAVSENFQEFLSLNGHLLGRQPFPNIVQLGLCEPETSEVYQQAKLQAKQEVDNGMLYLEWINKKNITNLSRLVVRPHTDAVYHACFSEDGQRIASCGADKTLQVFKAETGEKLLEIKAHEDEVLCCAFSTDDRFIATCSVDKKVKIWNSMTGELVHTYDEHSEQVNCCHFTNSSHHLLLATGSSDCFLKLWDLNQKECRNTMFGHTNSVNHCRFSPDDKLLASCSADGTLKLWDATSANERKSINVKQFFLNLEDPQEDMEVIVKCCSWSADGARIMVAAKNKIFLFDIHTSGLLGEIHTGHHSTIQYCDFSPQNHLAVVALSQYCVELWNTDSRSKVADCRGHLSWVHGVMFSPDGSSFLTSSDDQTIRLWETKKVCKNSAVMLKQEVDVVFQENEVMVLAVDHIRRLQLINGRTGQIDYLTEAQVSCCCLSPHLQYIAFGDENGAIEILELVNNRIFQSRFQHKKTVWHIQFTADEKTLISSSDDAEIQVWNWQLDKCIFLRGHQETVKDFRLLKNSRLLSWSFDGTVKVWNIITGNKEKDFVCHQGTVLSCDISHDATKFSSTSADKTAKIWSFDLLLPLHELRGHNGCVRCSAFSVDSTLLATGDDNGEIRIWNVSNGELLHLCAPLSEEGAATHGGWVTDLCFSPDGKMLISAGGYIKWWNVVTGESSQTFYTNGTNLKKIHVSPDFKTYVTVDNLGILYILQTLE

[6] = biological target: DNA dC->dU-editing enzyme APOBEC-3G (Homo sapiens, UniProt Q9HC16); assay: inhibition of APOBEC3G ssDNA deamination – biochemical, fluorescence, single-stranded DNA substrate, SAR follow-up (AID 602136); format: functional; conditions: read-out: IC50_Mean
[7] = biological target: DNA dC->dU-editing enzyme APOBEC-3A (Homo sapiens, UniProt P31941); assay: SAR analysis of small molecule inhibitors of APOBEC3A DNA Deaminase via a fluorescence-based single-stranded DNA deaminase assay.; format: functional; conditions: read-out: IC50_Mean
DNA dC->dU-editing enzyme APOBEC-3A, sequence (P31941 whole entry): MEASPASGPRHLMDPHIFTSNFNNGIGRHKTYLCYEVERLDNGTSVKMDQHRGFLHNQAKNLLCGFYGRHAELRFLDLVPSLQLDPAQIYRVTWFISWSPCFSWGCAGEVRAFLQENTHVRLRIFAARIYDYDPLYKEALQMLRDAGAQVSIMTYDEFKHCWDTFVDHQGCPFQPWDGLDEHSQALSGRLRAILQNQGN

[8] = biological target: Sphingosine 1-phosphate receptor 2 (Homo sapiens, UniProt O95136); assay: activation of human S1P2 receptor – cell-based, fluorescence, set 2, counter-screen for S1P4 agonist project, late-stage follow-up (AID 504873); format: functional
Sphingosine 1-phosphate receptor 2, sequence (O95136 whole entry): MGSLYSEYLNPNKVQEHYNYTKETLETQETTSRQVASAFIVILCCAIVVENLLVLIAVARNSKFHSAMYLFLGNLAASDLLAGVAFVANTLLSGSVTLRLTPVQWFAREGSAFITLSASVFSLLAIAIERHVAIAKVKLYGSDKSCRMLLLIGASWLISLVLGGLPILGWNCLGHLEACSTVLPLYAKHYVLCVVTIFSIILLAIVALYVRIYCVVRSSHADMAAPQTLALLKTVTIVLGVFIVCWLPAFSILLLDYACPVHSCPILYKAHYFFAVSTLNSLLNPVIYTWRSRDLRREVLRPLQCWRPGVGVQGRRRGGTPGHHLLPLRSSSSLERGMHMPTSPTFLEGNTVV

[9] = biological target: Sphingosine 1-phosphate receptor 3 (Homo sapiens, UniProt Q99500); assay: Late-stage fluorescence-based dose-response cell-based counterscreen assay to identify agonists of the Sphingosine 1-Phosphate Receptor 4 (S1P4): Sphingosine 1-Phosphate Receptor 3 (S1P3) agonist assay Set 2.; format: functional
Sphingosine 1-phosphate receptor 3, sequence (Q99500 whole entry): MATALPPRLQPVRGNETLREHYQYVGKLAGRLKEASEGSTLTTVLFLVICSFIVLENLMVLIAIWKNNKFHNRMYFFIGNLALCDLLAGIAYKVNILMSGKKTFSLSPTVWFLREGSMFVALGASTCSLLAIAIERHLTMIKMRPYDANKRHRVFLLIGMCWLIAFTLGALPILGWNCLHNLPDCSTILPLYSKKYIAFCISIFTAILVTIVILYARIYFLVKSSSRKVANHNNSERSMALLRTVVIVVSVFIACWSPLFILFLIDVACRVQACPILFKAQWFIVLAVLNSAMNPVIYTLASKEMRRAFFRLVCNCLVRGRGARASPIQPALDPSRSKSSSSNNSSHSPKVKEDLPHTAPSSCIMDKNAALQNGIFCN

[10] = biological target: Sphingosine 1-phosphate receptor 5 (Homo sapiens, UniProt Q9H228); assay: activation of human S1P5 receptor – cell-based, fluorescence, set 2, counter-screen for S1P4 agonist project, late-stage follow-up (AID 504867); format: functional
[11] = biological target: Sphingosine 1-phosphate receptor 1 (Homo sapiens, UniProt P21453); assay: Late-stage fluorescence-based dose-response cell-based counterscreen assay to identify agonists of the Sphingosine 1-Phosphate Receptor 4 (S1P4): Sphingosine 1-Phosphate Receptor 1 (S1P1) agonist assay Set 2.; format: functional
Sphingosine 1-phosphate receptor 1, sequence (P21453 whole entry): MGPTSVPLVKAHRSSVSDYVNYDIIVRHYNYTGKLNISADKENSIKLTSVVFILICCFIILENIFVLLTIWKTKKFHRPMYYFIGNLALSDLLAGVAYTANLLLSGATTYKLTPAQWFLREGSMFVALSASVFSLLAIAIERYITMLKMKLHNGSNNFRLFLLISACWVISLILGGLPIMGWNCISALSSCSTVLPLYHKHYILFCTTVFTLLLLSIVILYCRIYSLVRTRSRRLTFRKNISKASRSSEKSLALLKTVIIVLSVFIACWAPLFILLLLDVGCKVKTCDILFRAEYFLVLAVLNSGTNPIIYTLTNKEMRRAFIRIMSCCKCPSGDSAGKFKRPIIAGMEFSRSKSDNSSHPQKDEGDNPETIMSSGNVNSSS

[12] = biological target: Focal adhesion kinase 1 (Homo sapiens, UniProt Q05397); format: functional;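 further: measured as one member of a kinome panel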
[13] = biological target: Dual specificity protein kinase CLK4 (Homo sapiens, UniProt Q9HAZ1); format: functional
Dual specificity protein kinase CLK4, sequence (Q9HAZ1 whole entry, canonical isoform): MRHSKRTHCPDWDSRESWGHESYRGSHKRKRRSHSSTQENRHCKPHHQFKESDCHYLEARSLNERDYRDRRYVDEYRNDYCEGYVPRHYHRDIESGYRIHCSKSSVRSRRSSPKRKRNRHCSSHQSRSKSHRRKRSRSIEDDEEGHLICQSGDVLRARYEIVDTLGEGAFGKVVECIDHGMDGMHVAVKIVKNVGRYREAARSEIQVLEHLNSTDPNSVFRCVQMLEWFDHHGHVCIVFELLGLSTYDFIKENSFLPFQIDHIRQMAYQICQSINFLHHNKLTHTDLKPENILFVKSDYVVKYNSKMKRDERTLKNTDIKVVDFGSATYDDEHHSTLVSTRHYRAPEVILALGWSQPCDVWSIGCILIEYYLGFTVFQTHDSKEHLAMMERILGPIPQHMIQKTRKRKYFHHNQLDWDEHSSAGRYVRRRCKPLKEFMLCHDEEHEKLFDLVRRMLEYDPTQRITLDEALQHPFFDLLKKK

[14] = biological target: Casein kinase I isoform alpha (Homo sapiens, UniProt P48729); format: functional
[15] = tested on: HEK293; assay: EBV LMP1 TES2 canonical NF-kB signalling blockers – cell-based, HEK293, luciferase, cherry-pick, dose response (AID 588343); format: functional; conditions: Homo sapiens
[16] = biological target: Latent membrane protein 1 (Human herpesvirus 4 (strain B95-8), UniProt P03230); assay: LMP1 TES1 pathway selectivity over dsRED control – imaging, HEK293T, dual-color eGFP/dsRED, cherry-picks, selectivity assay for LMP1 NF-kB inhibitor project, dose response (AID 588398); format: functional, cell-based
[17] = biological target: Photoreceptor-specific nuclear receptor (Homo sapiens, UniProt Q9Y5X4); format: functional, cell-based;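 further: CHO-S cells with Gal4-NCOR and VP16-NR2E3 two-hybrid luciferase reporter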
Photoreceptor-specific nuclear receptor, sequence (Q9Y5X4 whole entry, the tested form may be a part): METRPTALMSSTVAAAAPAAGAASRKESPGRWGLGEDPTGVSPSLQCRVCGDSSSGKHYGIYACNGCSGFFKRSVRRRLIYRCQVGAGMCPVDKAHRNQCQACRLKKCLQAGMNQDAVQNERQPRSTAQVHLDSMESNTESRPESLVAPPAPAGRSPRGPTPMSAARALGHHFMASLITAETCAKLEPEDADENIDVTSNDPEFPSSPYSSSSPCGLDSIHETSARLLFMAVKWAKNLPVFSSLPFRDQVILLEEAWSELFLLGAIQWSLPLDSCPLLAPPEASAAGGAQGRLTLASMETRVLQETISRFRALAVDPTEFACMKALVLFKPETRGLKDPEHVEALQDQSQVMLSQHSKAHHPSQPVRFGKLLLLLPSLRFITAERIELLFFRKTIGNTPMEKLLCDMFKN

[18] = Luminescence Cell-Based Dose Response HTS to Identify Activators of Luciferase Translation or Activity in H4 […] Cells. [Related pubchem assays: 1829 (Project Summary), 1814 (Primary HTS)]; format: functional
[19] = biological target: Multidrug resistance protein CDR1 (Candida albicans, UniProt P43071); assay: inhibition of Nile Red efflux via Candida CDR1 – S. cerevisiae AD1-8u, singleplex, Cherry Pick1 hits, dose response (AID 588606); format: functional
Multidrug resistance protein CDR1, sequence (P43071 whole entry, looked up): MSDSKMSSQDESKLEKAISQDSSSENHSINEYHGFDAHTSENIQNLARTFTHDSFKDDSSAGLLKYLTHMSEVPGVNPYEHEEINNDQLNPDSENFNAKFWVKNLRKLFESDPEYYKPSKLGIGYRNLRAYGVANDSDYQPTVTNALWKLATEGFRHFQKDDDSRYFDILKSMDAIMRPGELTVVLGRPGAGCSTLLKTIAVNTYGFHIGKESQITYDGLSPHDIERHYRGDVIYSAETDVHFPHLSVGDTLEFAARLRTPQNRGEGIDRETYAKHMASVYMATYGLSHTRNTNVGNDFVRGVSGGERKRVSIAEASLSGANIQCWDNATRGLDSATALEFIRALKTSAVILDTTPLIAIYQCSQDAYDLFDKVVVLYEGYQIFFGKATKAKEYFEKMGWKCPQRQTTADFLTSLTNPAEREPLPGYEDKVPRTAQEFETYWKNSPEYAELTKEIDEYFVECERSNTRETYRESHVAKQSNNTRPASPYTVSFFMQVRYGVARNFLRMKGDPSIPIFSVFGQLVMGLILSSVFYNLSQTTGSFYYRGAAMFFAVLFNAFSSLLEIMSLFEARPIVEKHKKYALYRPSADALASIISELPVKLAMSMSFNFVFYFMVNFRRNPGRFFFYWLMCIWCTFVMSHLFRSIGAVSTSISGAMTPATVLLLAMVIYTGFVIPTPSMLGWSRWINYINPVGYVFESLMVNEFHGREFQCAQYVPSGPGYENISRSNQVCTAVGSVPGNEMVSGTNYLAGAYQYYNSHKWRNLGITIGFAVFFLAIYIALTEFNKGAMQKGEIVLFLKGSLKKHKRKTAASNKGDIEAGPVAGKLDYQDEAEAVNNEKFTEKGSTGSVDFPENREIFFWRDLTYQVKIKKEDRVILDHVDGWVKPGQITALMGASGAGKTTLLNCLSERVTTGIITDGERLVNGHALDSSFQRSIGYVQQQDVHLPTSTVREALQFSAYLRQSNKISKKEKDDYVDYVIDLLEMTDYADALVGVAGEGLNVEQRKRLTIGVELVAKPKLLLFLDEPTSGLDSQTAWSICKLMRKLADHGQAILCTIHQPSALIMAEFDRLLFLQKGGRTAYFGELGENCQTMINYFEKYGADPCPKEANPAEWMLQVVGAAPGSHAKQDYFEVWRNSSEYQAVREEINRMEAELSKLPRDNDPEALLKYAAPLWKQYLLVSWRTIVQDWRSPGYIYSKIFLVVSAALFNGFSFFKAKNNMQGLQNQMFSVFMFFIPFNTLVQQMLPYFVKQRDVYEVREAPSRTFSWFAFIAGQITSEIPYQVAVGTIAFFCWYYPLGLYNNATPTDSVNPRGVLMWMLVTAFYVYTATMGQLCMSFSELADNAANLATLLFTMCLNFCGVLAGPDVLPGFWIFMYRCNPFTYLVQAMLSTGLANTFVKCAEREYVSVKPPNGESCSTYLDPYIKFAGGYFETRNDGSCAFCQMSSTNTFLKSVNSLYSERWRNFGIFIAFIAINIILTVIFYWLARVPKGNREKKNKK

[20] = tested on: H4; assay: Luminescence Cell-Based Dose Response HTS to Identify Activators of 5'UTR Stem-Loop Driven Prion Protein mRNA Translation in H4 Neuroglioblastoma Cells. [Related pubchem assays: 1829 (Project Summary), 1814 (Primary HTS)]; format: functional; conditions: Homo sapiens
[21] = biological target: Botulinum neurotoxin type A (Clostridium botulinum (strain Hall / ATCC 3502 / NCTC 13319 / Type A), UniProt P0DPI1); assay: High-throughput multiplex microsphere dose response for inhibitors of toxin protease, specifically Botulinum neurotoxin light chain A protease, compounds from Cherry Pick 02.; format: functional; conditions: read-out: EC50_MICROM

Compound: COc1ccc(S(=O)(=O)N(C)C[C@@H]2Oc3c(NC(=O)Nc4cccc5ccccc45)cccc3C(=O)N([C@@H](C)CO)C[C@H]2C)cc1F
- AC50 [1]: > 195 µM (inactive)
- AC50 [2]: 60.8 µM (active)
- AC50 [3]: 23.2 µM (active)
- AC50 [4]: 26.7 µM (active)

Compound: CCN(CC)CCOC(=O)c1ccc(N/C=C(\C#N)c2nc(-c3ccc(Cl)c(Cl)c3)cs2)cc1
- IC50 [5]: 6.88 µM (active)

Compound: O=C1NC(=S)NC(=O)C1=Cc1ccc2c(c1)CCN2Cc1ccccc1Cl
- IC50 [6]: 77.5 µM (inactive)
- IC50 [7]: 9.78 µM (active)

Compound: CC/N=C1/S/C(=C/c2cc(C)n(Cc3ccccc3)c2C)C(=O)N1CC
- EC50 [8]: 3.28 µM (active)
- EC50 [9]: 12.9 µM (inactive)
- EC50 [10]: 0.0631 µM (active)
- EC50 [11]: 0.185 µM (active)

Compound: Cc1cc(C(C)Nc2ccccc2)c2nc(N3CCOCC3)cc(=O)n2c1 (stereo unspecified)
- Ki [12]: 2.51 µM (active)
- Ki [13]: 2.51 µM (active)
- Ki [14]: 2 µM (active)

Compound: S=C(NN=Cc1ccccn1)Nc1ccccn1
- AC50 [15]: 21.5 µM (active)
- AC50 [16]: 10.7 µM (active)
- IC50 [17]: 7.61 µM (active)

Compound: O=C(/C=C/c1ccccc1Cl)NCCc1ccccc1
- EC50 [18]: 4.27 µM (active)
- EC50 [19]: 0.514 µM (active)
- EC50 [20]: > 120 µM (not active)

Compound: Cc1onc(-c2ccccc2Cl)c1C(=O)NCc1ccc2c(c1)cc(C)n2C
- EC50 [21]: 4.2 µM (active)
